Measurements published in ChEMBL document CHEMBL4184275 (Bioorg Med Chem Lett, 2018).
Bridge positions count the residues as written; N and C are the ends. Peptide text beside a SMILES is read from it.

Columns and labels:
HL-60 = experiment: cells; settings: Homo sapiens
Description: Antiproliferative activity against human HL60 cells

MCF7 = experiment: Antiproliferative activity against human MCF7 cells; type: functional, cell-based
[1] = biological target: T1, Prolyl oligopeptidase family protein (Flavobacterium psychrophilum (strain JIP02/86 / ATCC 49511), UniProt A6H249); experiment: Inhibition of Flavobacterium POP preincubated for 5 mins followed by Z-Gly-Pro-pNA substrate measured after 30 mins
T1 sequence (A6H249 whole entry): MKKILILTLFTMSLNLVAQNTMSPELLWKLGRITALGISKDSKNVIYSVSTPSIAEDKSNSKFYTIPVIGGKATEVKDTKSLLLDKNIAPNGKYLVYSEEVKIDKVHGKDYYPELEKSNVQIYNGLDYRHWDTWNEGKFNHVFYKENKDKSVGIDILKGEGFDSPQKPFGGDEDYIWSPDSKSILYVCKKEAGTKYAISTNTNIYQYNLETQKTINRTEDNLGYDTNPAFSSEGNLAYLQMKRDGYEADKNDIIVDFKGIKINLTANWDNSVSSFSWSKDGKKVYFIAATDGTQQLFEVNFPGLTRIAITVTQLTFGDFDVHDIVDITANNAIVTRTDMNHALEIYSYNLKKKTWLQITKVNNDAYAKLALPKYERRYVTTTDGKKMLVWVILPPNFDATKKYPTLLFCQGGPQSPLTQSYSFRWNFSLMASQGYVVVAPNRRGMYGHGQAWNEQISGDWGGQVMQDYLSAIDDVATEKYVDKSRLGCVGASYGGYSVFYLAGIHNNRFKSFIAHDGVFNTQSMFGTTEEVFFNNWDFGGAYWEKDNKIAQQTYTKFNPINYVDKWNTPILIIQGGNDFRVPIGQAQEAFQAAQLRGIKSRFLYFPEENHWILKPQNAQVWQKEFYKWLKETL

Prolyl endopeptidase = biological target: T2, Prolyl endopeptidase (Homo sapiens, UniProt P48147); experiment: Inhibition of prolyl oligopeptidase (unknown origin)
T2 sequence (P48147 whole entry): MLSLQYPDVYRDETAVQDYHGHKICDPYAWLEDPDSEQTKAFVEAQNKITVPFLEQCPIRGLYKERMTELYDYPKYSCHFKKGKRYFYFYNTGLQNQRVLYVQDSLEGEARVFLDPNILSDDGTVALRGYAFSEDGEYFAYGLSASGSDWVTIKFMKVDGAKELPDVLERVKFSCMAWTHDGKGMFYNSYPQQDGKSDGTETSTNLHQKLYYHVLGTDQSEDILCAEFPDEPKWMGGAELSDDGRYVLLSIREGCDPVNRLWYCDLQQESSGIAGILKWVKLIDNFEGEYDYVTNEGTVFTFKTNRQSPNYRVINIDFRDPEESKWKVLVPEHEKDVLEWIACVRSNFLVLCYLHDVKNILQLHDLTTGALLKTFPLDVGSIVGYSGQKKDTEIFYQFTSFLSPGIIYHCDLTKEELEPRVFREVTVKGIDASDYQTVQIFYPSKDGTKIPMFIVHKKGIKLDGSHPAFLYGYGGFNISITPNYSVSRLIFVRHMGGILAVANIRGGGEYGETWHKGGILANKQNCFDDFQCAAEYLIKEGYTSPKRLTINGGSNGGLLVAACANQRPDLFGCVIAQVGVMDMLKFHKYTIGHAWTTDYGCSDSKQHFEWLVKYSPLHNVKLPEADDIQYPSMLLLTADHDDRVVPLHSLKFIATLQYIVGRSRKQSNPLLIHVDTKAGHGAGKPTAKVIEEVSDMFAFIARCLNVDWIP

CC(=O)Oc1c(OC(C)=O)c2c3cc(O)c(O)cc3oc2c2oc3cc(O)c(O)cc3c12
IC50 (HL-60): 2000 nM | IC50 (MCF7): 26900 nM | IC50 [1]: 770 nM

CC[C@H](C)[C@H](NC(=O)[C@H](Cc1ccccc1)NC(=O)[C@@H](NC(=O)[C@H](Cc1cnc[nH]1)NC(=O)CNC(=O)CNC(=O)[C@H](Cc1ccccc1)NC(=O)[C@H](CC(C)C)NC(=O)[C@@H]1CC(=O)NCC(=O)N[C@@H](Cc2ccc(O)cc2)C(=O)N2CCC[C@H]2C(=O)N[C@@H](Cc2c[nH]c3ccccc23)C(=O)N[C@@H](Cc2c[nH]c3ccccc23)C(=O)N[C@@H](CC(=O)O)C(=O)N[C@@H](Cc2ccc(O)cc2)C(=O)N[C@@H](CCCNC(=N)N)C(=O)N1)[C@@H](C)O)C(=O)N[C@@H](CO)C(=O)N1CCC[C@H]1C(=O)O (GYPWWDYRDLFGGHTFISP-OH; lactam N-9)
IC50 (Prolyl endopeptidase): 950 nM | IC50 (HL-60): > 20000 nM

CC(=O)Oc1c2oc3cc(O)c(O)cc3c2c(OC(C)=O)c2oc3cc(O)c(O)cc3c12 [POLYOZELLIN]
IC50 (HL-60): 1100 nM | IC50 (MCF7): 35100 nM | IC50 [1]: 1200 nM

CC[C@@]1(O)C(=O)OCc2c1cc1n(c2=O)Cc2cc3ccccc3nc2-1 [CAMPTOTHECIN]
IC50 (HL-60): 6.7 nM
